Reference: PubChem BioAssay (NCI)
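Where inhibition never reached the appropriate level, the endpoint shown equals the highest concentration tested. Otherwise, values were interpolated linearly from a five-concentration, 48-hour dose response in 96-well plates. Here, GI50 denotes the concentration required for 50% inhibition of growth. Definition used: TGI = concentration required for complete inhibition of growth.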

Experiments:
Experiment in all cases: DTP human tumour cell line panel, 48 h
[1] = test system: SF-268 CNS
[2] = test system: SF-295 CNS
[3] = test system: SK-MEL-2 melanoma
[4] = test system: SR leukemia
[5] = test system: BT-549 breast
[6] = test system: A498 renal
[7] = test system: DU-145 prostate
[8] = test system: MOLT-4 leukemia
[9] = test system: SK-OV-3 ovarian
[10] = test system: HL-60(TB) leukemia
[11] = test system: OVCAR-8 ovarian
[12] = test system: PC-3 prostate
[13] = test system: HOP-92 NSCLC
[14] = test system: HS 578T breast
[15] = test system: UO-31 renal
[16] = test system: ACHN renal
[17] = test system: UACC-257 melanoma
[18] = test system: RXF 393 renal
[19] = test system: UACC-62 melanoma
[20] = test system: OVCAR-4 ovarian
[21] = test system: CCRF-CEM leukemia
[22] = test system: NCI-H522 lung
[23] = test system: OVCAR-5 ovarian
[24] = test system: TK-10 renal
[25] = test system: SK-MEL-28 melanoma
[26] = test system: K-562 leukemia
[27] = test system: CAKI-1 renal
[28] = test system: A549 NSCLC
[29] = test system: SNB-75 CNS
[30] = test system: COLO 205 colon
[31] = test system: MDA-MB-435
[32] = test system: OVCAR-3 ovarian
[33] = test system: HCT-116 colon
[34] = test system: RPMI-8226 leukemia
[35] = test system: NCI-H226 lung
[36] = test system: SN12C renal
[37] = test system: SF-539 CNS
[38] = test system: U251 CNS
[39] = test system: SK-MEL-5 melanoma
[40] = test system: HOP-62 NSCLC
[41] = test system: MCF7 breast
[42] = test system: EKVX NSCLC
[43] = test system: HCC-2998 colon
[44] = test system: NCI/ADR-RES ovarian
[45] = test system: NCI-H460 lung
[46] = test system: SNB-19 CNS
[47] = test system: HCT-15 colon
[48] = test system: M14 melanoma
[49] = test system: HT29 colon
[50] = test system: MALME-3M melanoma
[51] = test system: SW-620 colon
[52] = test system: 786-0 renal
[53] = test system: LOX IMVI melanoma
[54] = test system: IGROV1 ovarian
[55] = test system: KM12 colon

`CC(C)=CCC[C@](C)(O)[C@H]1CC[C@]2(C)[C@@H]1CC[C@@H]1[C@@]3(C)CC[C@H](N)C(C)(C)[C@@H]3CC[C@]12C` gave a GI50 [1] of 4.19 µM, a TGI [1] of 21.8 µM and a GI50 [2] of 1.81 µM. It also gave a TGI [2] of 3.39 µM, a GI50 [3] of 2.02 µM and a TGI [3] of 4.05 µM. It also gave a GI50 [4] of 1.17 µM, a TGI [4] of 3.58 µM and a GI50 [5] of 14.3 µM. The TGI [5] was 55.8 µM, the GI50 [6] was 1.88 µM and the TGI [6] was 3.55 µM. It also gave a GI50 [7] of 1.92 µM, a TGI [7] of 3.63 µM and a GI50 [8] of 2.1 µM. The TGI [8] was 4.98 µM, the GI50 [9] was 3.23 µM and the TGI [9] was 10.9 µM. The GI50 [10] was 1.87 µM, the TGI [10] was 3.9 µM and the GI50 [11] was 2.18 µM. The TGI [11] was 4.96 µM, the GI50 [12] was 1.98 µM and the TGI [12] was 4.23 µM. For the same compound, the GI50 [13] was 1.76 µM, the TGI [13] was 5.46 µM and the GI50 [14] was 2.21 µM. For the same compound, the TGI [14] was 5.01 µM, the GI50 [15] was 1.54 µM and the TGI [15] was 2.9 µM. For the same compound, the GI50 [16] was 1.78 µM, the TGI [16] was 3.16 µM and the GI50 [17] was 2.06 µM. It also gave a TGI [17] of 4.47 µM, a GI50 [18] of 1.49 µM and a TGI [18] of 2.85 µM. The GI50 [19] was 1.66 µM, the TGI [19] was 3.21 µM and the GI50 [20] was 2.19 µM. It also gave a TGI [20] of 5.74 µM, a GI50 [21] of 3.02 µM and a TGI [21] greater than 100 µM. The GI50 [22] was 1.97 µM, the TGI [22] was 4.28 µM and the GI50 [23] was 1.64 µM. The TGI [23] was 3.09 µM, the GI50 [24] was 6.01 µM and the TGI [24] was 21.1 µM. For the same compound, the GI50 [25] was 1.8 µM, the TGI [25] was 3.35 µM and the GI50 [26] was 1.97 µM. It also gave a TGI [26] of 5.71 µM, a GI50 [27] of 1.85 µM and a TGI [27] of 3.38 µM. The GI50 [28] was 1.87 µM, the TGI [28] was 3.77 µM and the GI50 [29] was 10.5 µM. The TGI [29] was 26.4 µM, the GI50 [30] was 1.9 µM and the TGI [30] was 3.68 µM. It also gave a GI50 [31] of 1.87 µM, a TGI [31] of 3.52 µM and a GI50 [32] of 1.77 µM. The TGI [32] was 3.27 µM.

In the case of `Cc1cccc(N2CCN(C3=C(Cl)C(=O)c4ncccc4C3=O)CC2)c1`, the GI50 [33] was 1.67 µM, the TGI [33] was 3.07 µM and the GI50 [34] was 2.08 µM. It also gave a TGI [34] of 5.47 µM, a GI50 [1] of 14.4 µM and a TGI [1] of 32.2 µM. For the same compound, the GI50 [2] was 12.1 µM, the TGI [2] was 25.5 µM and the GI50 [3] was 6.33 µM. The TGI [3] was 19.2 µM, the GI50 [5] was 3.61 µM and the TGI [5] was 9.58 µM. It also gave a GI50 [6] of 13.1 µM, a TGI [6] of 26.5 µM and a GI50 [7] of 6.86 µM. The TGI [7] was 26.3 µM, the GI50 [8] was 2.01 µM and the TGI [8] was 5.45 µM. For the same compound, the GI50 [9] was 12.8 µM, the TGI [9] was 42.9 µM and the GI50 [35] was 12.9 µM. It also gave a TGI [35] of 33.3 µM, a GI50 [36] of 4.28 µM and a TGI [36] of 21.9 µM. The GI50 [10] was 1.27 µM, the TGI [10] was 3.82 µM and the GI50 [37] was 3.91 µM. For the same compound, the TGI [37] was 15.6 µM, the GI50 [11] was 2.66 µM and the TGI [11] was 9.3 µM. For the same compound, the GI50 [38] was 6.96 µM, the TGI [38] was 21.1 µM and the GI50 [12] was 4.48 µM. The TGI [12] was 17.5 µM, the GI50 [39] was 9.63 µM and the TGI [39] was 21.5 µM. For the same compound, the GI50 [40] was 17 µM, the TGI [40] was 31 µM and the GI50 [41] was 1.63 µM. The TGI [41] was 3.75 µM, the GI50 [13] was 1.48 µM and the TGI [13] was 2.86 µM. For the same compound, the GI50 [14] was 5.74 µM, the TGI [14] was 38.5 µM and the GI50 [15] was 1.48 µM. It also gave a TGI [15] of 2.81 µM, a GI50 [16] of 1.72 µM and a TGI [16] of 3.51 µM. It also gave a GI50 [17] of 2.05 µM, a TGI [17] of 4.97 µM and a GI50 [18] of 1.72 µM. For the same compound, the TGI [18] was 3.15 µM, the GI50 [42] was 1.78 µM and the TGI [42] was 3.34 µM. The GI50 [19] was 3.49 µM, the TGI [19] was 13 µM and the GI50 [20] was 1.74 µM. The TGI [20] was 3.26 µM, the GI50 [21] was 2.03 µM and the TGI [21] was 5.79 µM. For the same compound, the GI50 [22] was 1.74 µM, the TGI [22] was 3.42 µM and the GI50 [23] was 15 µM. For the same compound, the TGI [23] was 31.5 µM, the GI50 [24] was 3.96 µM and the TGI [24] was 8.89 µM. It also gave a GI50 [43] of 8.53 µM, a TGI [43] of 22.1 µM and a GI50 [44] of 2.44 µM. The TGI [44] was 7.45 µM, the GI50 [45] was 5.49 µM and the TGI [45] was 21.3 µM. For the same compound, the GI50 [46] was 14.4 µM, the TGI [46] was 29.5 µM and the GI50 [47] was 1.71 µM. For the same compound, the TGI [47] was 4.05 µM, the GI50 [25] was 2.6 µM and the TGI [25] was 6.61 µM. For the same compound, the GI50 [48] was 2.69 µM, the TGI [48] was 9.36 µM and the GI50 [49] was 6.09 µM. For the same compound, the TGI [49] was 21 µM, the GI50 [26] was 1.8 µM and the TGI [26] was 5.31 µM. The GI50 [50] was 1.83 µM, the TGI [50] was 3.77 µM and the GI50 [51] was 1.42 µM. It also gave a TGI [51] of 3 µM, a GI50 [52] of 2.33 µM and a TGI [52] of 5.36 µM. It also gave a GI50 [27] of 2.86 µM, a TGI [27] of 11.6 µM and a GI50 [53] of 1.57 µM. For the same compound, the TGI [53] was 3.02 µM, the GI50 [28] was 15.7 µM and the TGI [28] was 36 µM. It also gave a GI50 [54] of 2.53 µM, a TGI [54] of 6.58 µM and a GI50 [29] of 10.9 µM. It also gave a TGI [29] of 27.9 µM, a GI50 [30] of 1.94 µM and a TGI [30] of 3.79 µM. For the same compound, the GI50 [55] was 19 µM, the TGI [55] was 36.4 µM and the GI50 [31] was 1.81 µM. It also gave a TGI [31] of 3.35 µM.
